32 compounds from ChEMBL document CHEMBL5113526, “Design, Synthesis, and Biological Evaluation of Androgen Receptor Degrading and Antagonizing Bifunctional Steroidal Analogs for the Treatment of Advanced Prostate Cancer” (J Med Chem, 2022) can be followed below.

Each structure is given as a SMILES string.

Test [1] has as its system LNCaP. The test can be described thus: cells. Conditions: Homo sapiens.
Description: Antiproliferative activity against human LNCAP cells assessed as reduction in cell viability measured after 6 days by CellTiter-Glo assay
Test [2] has as its system LNCaP. The test can be described thus: Antiproliferative activity against human LNCAP cells assessed as reduction in cell viability at 10 uM measured after 6 days by CellTiterGlo assay relative to control. In kind it is functional. Conditions: Homo sapiens, LNCaP, time 6 day. (In general: ATP-based viability assays read luminescence as a measure of living cells.)
For test [3], the target named is T1, Steroid 17-alpha-hydroxylase/17,20 lyase (Homo sapiens, UniProt P05093).
T1 sequence (P05093 whole entry): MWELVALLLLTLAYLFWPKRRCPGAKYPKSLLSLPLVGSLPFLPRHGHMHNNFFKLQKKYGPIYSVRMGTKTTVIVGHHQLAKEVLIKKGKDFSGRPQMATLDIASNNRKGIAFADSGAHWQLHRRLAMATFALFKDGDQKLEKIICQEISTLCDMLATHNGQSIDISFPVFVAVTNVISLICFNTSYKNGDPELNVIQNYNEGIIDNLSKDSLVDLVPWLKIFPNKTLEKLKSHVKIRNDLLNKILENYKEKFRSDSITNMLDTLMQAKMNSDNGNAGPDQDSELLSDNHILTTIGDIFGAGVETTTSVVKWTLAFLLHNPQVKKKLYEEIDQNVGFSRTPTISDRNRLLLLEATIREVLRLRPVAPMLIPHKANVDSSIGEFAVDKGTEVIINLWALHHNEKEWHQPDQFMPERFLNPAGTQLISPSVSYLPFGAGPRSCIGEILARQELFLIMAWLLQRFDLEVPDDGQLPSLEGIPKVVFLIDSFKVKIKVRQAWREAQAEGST
Kind of test: Inhibition of human recombinant CYP17A1 incubated for 5 mins in presence of NADPH by LC-MS/MS analysis. In kind it is ADME.

Test [4] concerns the target T2, Androgen receptor (Homo sapiens, UniProt P10275).
T2 sequence (P10275 whole entry): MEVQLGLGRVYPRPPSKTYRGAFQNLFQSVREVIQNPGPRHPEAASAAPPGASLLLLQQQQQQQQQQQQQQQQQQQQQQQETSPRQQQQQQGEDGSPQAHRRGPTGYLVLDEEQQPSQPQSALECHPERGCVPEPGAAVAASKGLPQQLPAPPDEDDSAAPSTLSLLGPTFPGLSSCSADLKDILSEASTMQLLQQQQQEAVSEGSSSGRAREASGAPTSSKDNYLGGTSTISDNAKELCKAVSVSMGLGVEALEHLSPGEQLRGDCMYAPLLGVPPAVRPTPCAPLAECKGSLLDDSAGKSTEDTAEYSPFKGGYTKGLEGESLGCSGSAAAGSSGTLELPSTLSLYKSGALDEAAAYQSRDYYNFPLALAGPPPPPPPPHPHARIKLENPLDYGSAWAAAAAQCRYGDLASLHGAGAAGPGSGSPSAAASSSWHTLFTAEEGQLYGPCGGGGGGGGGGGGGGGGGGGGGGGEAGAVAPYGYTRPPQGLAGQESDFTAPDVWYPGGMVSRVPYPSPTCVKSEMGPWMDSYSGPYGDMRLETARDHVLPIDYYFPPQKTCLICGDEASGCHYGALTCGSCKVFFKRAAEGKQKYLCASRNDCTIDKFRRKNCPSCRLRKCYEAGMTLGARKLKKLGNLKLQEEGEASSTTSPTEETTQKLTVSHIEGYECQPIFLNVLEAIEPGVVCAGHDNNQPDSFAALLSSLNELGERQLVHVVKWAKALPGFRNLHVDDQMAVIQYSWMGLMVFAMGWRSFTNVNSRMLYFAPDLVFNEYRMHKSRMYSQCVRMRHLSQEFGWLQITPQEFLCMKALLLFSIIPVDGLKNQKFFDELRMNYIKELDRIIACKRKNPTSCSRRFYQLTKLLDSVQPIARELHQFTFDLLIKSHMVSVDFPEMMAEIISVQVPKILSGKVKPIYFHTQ
Kind of test: Antagonist activity at DHT-induced Androgen receptor transcriptional activity in human HEK293 cells measured after 24 hrs by Steady-Glo reagent based assay. It counts as cell-based.

The target of test [5] is T2, Androgen receptor. The test can be described thus: Induction of AR degradation in human LNCap cells incubated for 24 hrs by sandwich ELISA analysis. It counts as cell-based. (In an ELISA, binding on a coated surface is turned into a signal by an enzyme label.)

Consider `Cc1noc(C)c1S(=O)(=O)N[C@H]1CC[C@@]2(C)C(=CC[C@@H]3[C@@H]2CC[C@]2(C)C(n4cnc5ccccc54)=CC[C@@H]32)C1`, for which, in test [1], the midpoint of inhibition, the IC50, lay at 2260 nM. Moreover, in test [2], the inhibition at 10 µM stood at 100%.
`C[C@]12CC[C@H](NC(=O)c3cccnc3)CC1=CC[C@@H]1[C@@H]2CC[C@]2(C)C(c3cncnc3)=CC[C@@H]12` registered an IC50 in test [1] greater than 10000 nM.
On to `C[C@]12CC[C@H](O)CC1=CC[C@@H]1[C@@H]2CC[C@]2(C)C(n3cnc4ccccc43)=CC[C@@H]12` [GALETERONE], for which the half-maximal inhibitory concentration (IC50) in test [1] turned out to be 3550 nM; in test [3], 16 nM. Further, the inhibition at 10 µM in test [2] came out at 110%.
On to `C[C@]12CC[C@H](NC(=O)c3ccncc3)CC1=CC[C@@H]1[C@@H]2CC[C@]2(C)C(n3cnc4ccccc43)=CC[C@@H]12`, for which the IC50 in test [4] was determined as 1550 nM; in test [1] it was 763 nM. Also, the inhibition at 10 µM in test [2] is 104%. The compound further registered a 50% degradation concentration (DC50) in test [5] of 3760 nM.
In the case of `C[C@]12CC[C@H](O)C[C@@H]1[C@@H](OS(C)(=O)=O)C[C@@H]1[C@@H]2CC[C@]2(C)C(c3cccnc3)=CC[C@@H]12`, the IC50 in test [1] came out at 1790 nM. In addition, the inhibition at 10 µM in test [2] came out at 100%.
For `C[C@]12CC[C@H](NS(=O)(=O)c3cccnc3)CC1=CC[C@@H]1[C@@H]2CC[C@]2(C)C(n3cnc4ccccc43)=CC[C@@H]12` the same measures were 1640 nM and 93.3%.
For `Cc1cncc(C2=CC[C@H]3[C@@H]4CC=C5C[C@@H](NC(=O)c6cccnc6)CC[C@]5(C)[C@H]4CC[C@]23C)c1` the same measures were 2430 nM and 90.3%.
On to `C[C@]12CC[C@H](NC(=O)c3ccnnc3)CC1=CC[C@@H]1[C@@H]2CC[C@]2(C)C(n3cnc4ccccc43)=CC[C@@H]12`, for which the IC50 in test [4] worked out at 1350 nM; in test [1], 765 nM. The inhibition at 10 µM in test [2] turned out to be 95.9%. The same compound had a DC50 in test [5] of 4780 nM.
`C[C@]12CC[C@H](NC(=O)c3ccncc3)CC1=CC[C@@H]1[C@@H]2CC[C@]2(C)C(c3cncc(F)c3)=CC[C@@H]12` registered a half-inhibitory concentration (IC50) in test [1] of 1010 nM. In addition, in test [2], the inhibition at 10 µM turned out to be 104%.
The compound `C[C@]12CC[C@H](NC(=O)c3cocn3)CC1=CC[C@@H]1[C@@H]2CC[C@]2(C)C(n3cnc4ccccc43)=CC[C@@H]12` yielded an IC50 in test [1] of 2230 nM. For the same compound, in test [2], the inhibition at 10 µM worked out at 95.2%.
For `C[C@]12CC[C@H](NCc3ccncc3)CC1=CC[C@@H]1[C@@H]2CC[C@]2(C)C(n3cnc4ccccc43)=CC[C@@H]12` the same measures were 2380 nM and 111%.
`C[C@]12CC[C@H](NC(=O)c3ccnnc3)CC1=CC[C@@H]1[C@@H]2CC[C@]2(C)C(c3cncc(F)c3)=CC[C@@H]12` came in with an IC50 in test [1] of 2210 nM. Also, in test [2], the inhibition at 10 µM turned out to be 100%.
For `C[C@]12CC[C@H](O)C[C@@H]1[C@H](NS(=O)(=O)c1cccnc1)C[C@@H]1[C@@H]2CC[C@]2(C)C(c3cccnc3)=CC[C@@H]12` the same measures were 5430 nM and 100%.
For `C[C@]12CC[C@H](NC(=O)c3cccnc3)CC1=CC[C@@H]1[C@@H]2CC[C@]2(C)C(n3cnc4ccccc43)=CC[C@@H]12` the same measures were 1600 nM and 109%.
For `C[C@]12CC[C@H](NC(=O)c3ccnnc3)CC1=CC[C@@H]1[C@@H]2CC[C@]2(C)C(c3cncnc3)=CC[C@@H]12` the same measures were 820 nM and 99.7%.
In turn, `C[C@]12CC[C@H](NC(=O)c3cscn3)CC1=CC[C@@H]1[C@@H]2CC[C@]2(C)C(n3cnc4ccccc43)=CC[C@@H]12` gave an IC50 in test [1] of 978 nM. In addition, the inhibition at 10 µM in test [2] was 63.2%.
Take `C[C@]12CC[C@H](NC(=O)c3ccnnc3)CC1=CC[C@@H]1[C@@H]2CC[C@]2(C)C(n3cncn3)=CC[C@@H]12`: the IC50 in test [1] is 238 nM; in test [3], greater than 3000 nM. In addition, the inhibition at 10 µM in test [2] was 64.4%.
The compound `CO/N=C1\C[C@@H]2[C@H](CC[C@]3(C)C(c4cccnc4)=CC[C@@H]23)[C@@]2(C)CC[C@H](O)C[C@H]12` gave an IC50 in test [1] of 8120 nM. In test [2], the inhibition at 10 µM is 100%.
In the case of `C[C@]12CC[C@H](O)C[C@@H]1[C@H](CO)C[C@@H]1[C@@H]2CC[C@]2(C)C(c3cccnc3)=CC[C@@H]12`, the IC50 in test [1] stood at 2830 nM. Also, the inhibition at 10 µM in test [2] was 88.5%.
Take `C[C@]12CC[C@H](NC(=O)c3ccnnc3)CC1=CC[C@@H]1[C@@H]2CC[C@]2(C)C(n3ccnc3)=CC[C@@H]12`: the half-inhibitory concentration (IC50) in test [4] turned out to be 981 nM; in test [1], 382 nM. The inhibition at 10 µM in test [2] worked out at 92.4%. This compound showed a 50% degradation concentration (DC50) in test [5] of 2760 nM.
For the compound `C[C@]12CC[C@H](NC(=O)c3ccncn3)CC1=CC[C@@H]1[C@@H]2CC[C@]2(C)C(n3cnc4ccccc43)=CC[C@@H]12`, in test [1], the 50% inhibitory concentration (IC50) was 1420 nM. Also, the inhibition at 10 µM in test [2] was 101%.
On to `COc1cncc(C2=CC[C@H]3[C@@H]4CC=C5C[C@@H](NC(=O)c6ccnnc6)CC[C@]5(C)[C@H]4CC[C@]23C)c1`, for which the values for the IC50 in test [4] and in test [1] were 914 nM and 646 nM, respectively. In test [2], the inhibition at 10 µM was determined as 73.7%. In test [5], this compound returned a 50% degradation concentration (DC50) of 38400 nM.
The compound `Cn1cncc1S(=O)(=O)N[C@H]1CC[C@@]2(C)C(=CC[C@@H]3[C@@H]2CC[C@]2(C)C(n4cnc5ccccc54)=CC[C@@H]32)C1` came in with a 50% inhibitory concentration (IC50) in test [1] of 7200 nM. Also, the inhibition at 10 µM in test [2] worked out at 100%.
For the compound `C[C@]12CC[C@H](NC(=O)c3cccnn3)CC1=CC[C@@H]1[C@@H]2CC[C@]2(C)C(n3cnc4ccccc43)=CC[C@@H]12`, in test [1], the 50% inhibitory concentration (IC50) came out at 2250 nM.
On to `C[C@]12CC[C@H](O)CC1=CC[C@@H]1[C@@H]2CC[C@]2(C)C(c3cccnc3)=CC[C@@H]12` [ABIRATERONE], for which the half-inhibitory concentration (IC50) is 2710 nM in test [1] and 2 nM in test [3]. In addition, in test [2], the inhibition at 10 µM came out at 84.7%.
`C[C@]12CC[C@H](O)C[C@@H]1[C@H](NS(C)(=O)=O)C[C@@H]1[C@@H]2CC[C@]2(C)C(c3cccnc3)=CC[C@@H]12` gave an IC50 in test [1] greater than 10000 nM.
Compound `C[C@]12CC[C@H](NC(=O)c3cccnc3)CC1=CC[C@@H]1[C@@H]2CC[C@]2(C)C(n3ccnn3)=CC[C@@H]12` displayed a concentration for half-maximal inhibition (IC50) in test [1] of 1390 nM. In test [2], the inhibition at 10 µM was 76.2%.
As for `Cc1cn(C2=CC[C@H]3[C@@H]4CC=C5C[C@@H](NC(=O)c6cccnc6)CC[C@]5(C)[C@H]4CC[C@]23C)cn1`, the IC50 is 1280 nM in test [4] and 933 nM in test [1]. In test [2], the inhibition at 10 µM worked out at 103%. In test [5], this compound showed a DC50 of 3580 nM.
On to `C[C@]12CC[C@H](NC(=O)c3cccnc3)CC1=CC[C@@H]1[C@@H]2CC[C@]2(C)C(n3cncn3)=CC[C@@H]12`, for which the concentration for half-maximal inhibition (IC50) in test [1] came to 1670 nM. Besides, the inhibition at 10 µM in test [2] was 105%.
On to `Cc1cncc(C2=CC[C@H]3[C@@H]4CC=C5C[C@@H](NC(=O)c6ccnnc6)CC[C@]5(C)[C@H]4CC[C@]23C)c1`, for which the IC50 in test [4] turned out to be 1640 nM; in test [1] it was 743 nM. In test [2], the inhibition at 10 µM came out at 78.2%. Moreover, the DC50 in test [5] was 11800 nM.
In turn, `COc1cncc(C2=CC[C@H]3[C@@H]4CC=C5C[C@@H](NC(=O)c6cccnc6)CC[C@]5(C)[C@H]4CC[C@]23C)c1` showed a concentration for half-maximal inhibition (IC50) in test [1] greater than 10000 nM.
The compound `C[C@]12CC[C@H](O)C[C@@H]1[C@H](Oc1ccncn1)C[C@@H]1[C@@H]2CC[C@]2(C)C(c3cccnc3)=CC[C@@H]12` showed an IC50 in test [1] of 3160 nM. In test [2], the inhibition at 10 µM came to 91.3%.

Broadly, the IC50 is the concentration that gives 50% inhibition. The inhibition is the relative decrease from the control value, in per cent. As a reminder, the DC50 is the midpoint of the concentration-degradation curve. High values mean a less potent degrader, low ones a more potent degrader.
